The experiment deals with T1, human iGluR4 (Homo sapiens, UniProt P48058).
T1 construct: expressed in transfected cells; host or cells: HEK293
In words: Whole-cell voltage clamp electrophysiology of AMPA receptor potentiation in HEK293 cells stably expressing human iGluR4. The class given is cell-based. The following applies: voltage-clamped at −60 mV, 1 mM glutamate, fit to the Hill equation, read-out: activity (EC50, potentiation of current evoked by 1 mM glutamate). An excerpt: HEK293 cells stably expressing human iGluR4 (obtained as described in European Patent Application Publication No. EP-A1-0583917) are used in the electrophysiological characterization of AMPA receptor potentiators. The extracellular recording solution contains (in mM): 140 NaCl, 5 KCl, 10 HEPES, 1 MgCl2, 2 CaCl2, 10 glucose, pH=7.4 with NaOH, 295 mOsm kg-1. The intracellular recording solution contains (in mM): 140 CsCl, 1 MgCl2, 10 HEPES, (N-[2-hydroxyethyl]piperazine-N1-[2-ethanesulfonic acid]) 10 EGTA (ethylene-bis(oxyethylene-nitrilo)tetraacetic acid), pH=7.2 with CsOH, 295 mOsm kg-1. With these solutions, recording pipettes have a resistance of 2-3 MΩ. […] Responses to 1 mM glutamate are then determined in the presence of test compound. […]
In order to determine the potency of test compounds, the concentration of the test compound, both in the bathing solution and co-applied with glutamate, is increased in half log units until the maximum effect was seen. […] Reversibility of test compound activity is determined by assessing control glutamate 1 mM responses. Once the control responses to the glutamate challenge are re-established, the potentiation of these responses by 100 μM cyclothiazide is determined by its inclusion in both the bathing solution and the glutamate-containing solution. In this manner, the efficacy of the test compound relative to that of cyclothiazide can be determined. […]

T1 sequence (P48058 21-902): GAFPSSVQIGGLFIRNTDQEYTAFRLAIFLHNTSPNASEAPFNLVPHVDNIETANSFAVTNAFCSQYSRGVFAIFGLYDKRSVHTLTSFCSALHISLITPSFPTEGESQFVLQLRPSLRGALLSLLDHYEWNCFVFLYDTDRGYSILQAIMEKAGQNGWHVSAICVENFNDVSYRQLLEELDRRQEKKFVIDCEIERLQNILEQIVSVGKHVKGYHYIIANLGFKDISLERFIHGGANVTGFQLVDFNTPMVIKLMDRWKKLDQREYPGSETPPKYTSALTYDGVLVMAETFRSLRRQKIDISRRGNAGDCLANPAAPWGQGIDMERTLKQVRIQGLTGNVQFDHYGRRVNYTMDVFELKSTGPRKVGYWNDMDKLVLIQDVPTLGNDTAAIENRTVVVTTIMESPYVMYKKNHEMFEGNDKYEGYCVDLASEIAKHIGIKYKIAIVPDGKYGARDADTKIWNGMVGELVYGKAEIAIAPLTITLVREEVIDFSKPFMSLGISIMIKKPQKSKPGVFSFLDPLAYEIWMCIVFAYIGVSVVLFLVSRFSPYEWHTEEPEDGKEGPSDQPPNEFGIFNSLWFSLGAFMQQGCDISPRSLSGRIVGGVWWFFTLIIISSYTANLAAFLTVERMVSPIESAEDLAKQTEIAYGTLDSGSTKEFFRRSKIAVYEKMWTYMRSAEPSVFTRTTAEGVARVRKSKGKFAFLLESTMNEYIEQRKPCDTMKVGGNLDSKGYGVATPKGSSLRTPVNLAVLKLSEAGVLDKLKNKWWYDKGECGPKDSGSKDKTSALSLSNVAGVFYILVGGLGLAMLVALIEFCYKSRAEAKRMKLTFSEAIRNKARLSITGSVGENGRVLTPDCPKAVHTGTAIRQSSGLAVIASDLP

As for `CCOc1cc(C(=O)O)ccc1-c1ccc(-c2sccc2NS(=O)(=O)C(C)C)cc1` [Example 1, 2-Ethoxy-4′-[3-(propane-2-sulfonylamino)-thiophen-2-yl]-biphenyl-4-carboxylic acid], the EC50 was 145 nM.

The values above are taken from patent US7652064B2, “AMPA receptor potentiators” (Eli Lilly and Company, priority 2005, dated 2010).
